# From US6492302B1, “Compositions for the protection of plants against the stress of oxidation” (priority 1998, dated 2002)
# Experiment: antioxidant properties of lipo-amino acids
substance,measurement,value
butyryl-cystine,antioxidant properties,does not possess these properties
